A short description of data set [1]: Stability of SMS in gastric juices. The format is in vitro ADME.
Data set [2] can be described thus: Biopharmaceutical properties of SMS: first pass effect and excretion. Format: in vivo. The settings on record: rat.

Read-outs that look alike come from different tables or passages of the source.

1 molecule from patent US5393738A (Sandoz, Ltd., priority 1986, dated 1995) can be followed below.

With `C[C@@H](O)[C@@H]1NC(=O)[C@H](CCCCN)NC(=O)[C@@H](Cc2c[nH]c3ccccc23)NC(=O)[C@H](Cc2ccccc2)NC(=O)[C@@H](NC(=O)[C@H](N)Cc2ccccc2)CSSC[C@@H](C(=O)N[C@H](CO)[C@@H](C)O)NC1=O` [SMS, octreotide], the “stability in gastric juices” value in data set [1] is “extremely stable”. Further, the dose excreted was about 80% in data set [2] (bile, read-out: excreted as the unchanged drug in the bile) and about 20% in data set [2] (urine, read-out: excreted as the unchanged drug in the urine).
